Measurements from patent US20080139457A1, “Therapeutic compositions comprising chorionic gonadotropins and HMG CoA reductase inhibitors” (Virginia Commonwealth University, priority 2005, published 2008).
“Also recorded” adds a separate entry of the source.

How the values were obtained:
[1] = tested on: ERK½, JNK½, AKT (S473); assay: Immunoblotting of phosphorylation status of ERK½, JNK½, AKT in LNCaP cells; type: cell-based, human; settings: for effect on hCG-induced ERK½ activation: pertussis toxin 300 ng/ml, AG1478 1 μM or GM6001 1 μM, 30 min after hCG 2 mU/ml
Description: SDS-PAGE and Immunoblotting. The cells were plated at 5×10^5 cells/cm^2 and treated with drugs at the indicated concentrations and after the indicated time of treatment, lysed in whole-cell lysis buffer (0.5 M Tris-HCl, pH 6.8, 2% SDS, 10% glycerol, 1% β-mercaptoethanol, 0.02% bromophenol blue), and the samples were boiled for 30 minutes. The boiled samples were loaded onto 10-14% SDS-PAGE and electrophoresis was run overnight. Proteins were electrophoretically transferred onto 0.22 μm nitrocellulose, and immunoblotted with various primary antibodies against different proteins. All immunoblots were visualized by enhanced chemiluminescence (ECL).
(§1) (1) LNCaP cells were cultured as described above. […] 0-6 hours after treatment, the cells were isolated, lysed in SDS PAGE sample buffer and equal protein concentrations subjected to SDS PAGE followed by immunoblotting to determine the phosphorylation status (activity status) of ERK½, JNK½, AKT (S473) and the expression level of ERK2 protein.
(§2) (2) LNCaP cells were cultured as described above. 12 hours after plating, the cells were treated with vehicle (VEH, PBS) or pertussis toxin (300 ng/ml). 23 hours after plating cells were treated with vehicle (VEH, DMSO) or the ERBB1 inhibitor AG1478 (1 μM).
(4) LNCaP cells were cultured as described above. […] Thirty minutes after irradiation the cells were isolated, lysed in SDS PAGE sample buffer and equal protein concentrations subjected to SDS PAGE followed by immunoblotting to determine the phosphorylation status (activity status) of ERK½ and ERBB1 Y1068 and the expression levels of ERBB1 and ERK2 proteins.
as §1, with “LNCaP” for “(1) LNCaP”, “At the indicated times” for “0-6 hours”, “treatment (12-96 h),” for “treatment,”

[2] = tested on: ERBB1; assay: Immunoblotting of ERBB1 phosphorylation in LNCaP cells; type: cell-based, human; settings: for effect on hCG-induced ERBB1 Y1173 phosphorylation: AG1478 1 μM, pertussis toxin 300 ng/ml, PD184352 1 μM or GM6001 1 μM, 30 min after hCG 2 mU/ml
Description: (§3) SDS-PAGE and Immunoblotting. The cells were plated at 5×10^5 cells/cm^2 and treated with drugs at the indicated concentrations and after the indicated time of treatment, lysed in whole-cell lysis buffer (0.5 M Tris-HCl, pH 6.8, 2% SDS, 10% glycerol, 1% β-mercaptoethanol, 0.02% bromophenol blue), and the samples were boiled for 30 minutes. […] All immunoblots were visualized by enhanced chemiluminescence (ECL).
as §2
(3) LNCaP cells were cultured as described above.
(4) LNCaP cells were cultured as described above.

[3] = tested on: LNCaP cells; assay: Apoptosis assay in LNCaP cells (trypan blue exclusion); type: cell-based, human; settings: for effect of inhibitor on cell viability / hCG lethality: LY294002 10 μM or AG1478 1 μM 30 min before hCG 2 mU/ml
Description: Cell culture. Human prostate cells (PC3 and LCNaP) were purchased from the ATCC were cultured at 37° C. (5% (v/v CO2) in vitro using RPMI supplemented with 10% (v/v) fetal calf serum.
LNCaP cells were cultured as described above. […] The cells were isolated by trypsinization 96 hours after irradiation. The attached and floating cells were combined, and cell viability was determined by trypan blue exclusion assays using a light microscope (*p<0.05 value greater than corresponding vehicle/irradiated+vehicle value; n=3 per data point ±SEM from 3 studies).
LNCaP cells were cultured as described above. […] Caspase inhibitors were re-supplemented every 24 hours. After 96 hours of culture, cell viability numbers were determined MTT assays using a plate reader. The cells were isolated 96 hours after irradiation by trypsinization, the attached and floating cells combined, and cell viability determine by trypan blue exclusion assays using a light microscope.
(2) LNCaP cells were cultured as described above. […] Cells were isolated 96 h after irradiation by trypsinization, the attached and floating cells combined, and cell viability determine by trypan blue exclusion assays using a light microscope.
LNCaP cells were cultured as described above. […] Cells were isolated 96 hours after irradiation by trypsinization, the attached and floating cells combined, and cell viability determine by trypan blue exclusion assays using a light microscope. Cells were then lysed in SDS PAGE sample buffer and equal protein concentrations subjected to SDS PAGE followed by immunoblotting to determine the PARP1 ADP-ribosylation status (activity status) in the presence or absence of PJ-34.
LNCaP cells were cultured as described in Example 1. Twelve hours after plating the cells were transfected using Lipofectamine with either a scrambled siRNA (SCR) or with siRNA molecules to suppress PARP1 or AIF expression (siPARP; siAIF; 10 nM each). […] Cells were isolated 96 hours after irradiation by trypsinization, the attached and floating cells combined, and cell viability determine by trypan blue exclusion assays using a light microscope. Cells were then lysed in SDS PAGE sample buffer and equal protein concentrations subjected to SDS PAGE followed by immunoblotting to determine PARP1 and AIF expression in the presence or absence of siPARP and siAIF, siRNA molecules, respectively. PARP-induced cell death has been linked by some groups to the cytotoxic actions of AIF.
Apoptosis assay. LNCaP cells were cultured as described above. […] Cells were isolated by trypsinization 96 hours after irradiation, the attached and floating cells combined, and cell viability determine by trypan blue exclusion assays using a light microscope.
LNCaP cells were cultured as described above. […] Cells were isolated 96 hours after irradiation by trypsinization, the attached and floating cells combined, and cell viability determine by trypan blue exclusion assays using a light microscope.
LNCaP cells were cultured as described above. Twenty three hours after plating, cells were treated with either the control, vehicle (VEH, DMSO), or farnesyl pyrophosphate (FPP; 1 μM) or geranylgeranyl pyrophosphate (GGPP, 1 μM). […] In some cells the statin may enhance the effects of the chorionic gonadotropin by blocking farnesylation in which case the use of a farnesyl transferase inhibitor will be of further use.
Apoptosis assay in LNCaP Cells. (1) LNCaP cells were cultured as described above. Twelve hours after plating, cells were infected with either empty vector virus (CMV) or with viruses to express dominant negative AKT, dominant negative MEK1, dominant negative IkB, constitutively active AKT, and constitutively active MEK1 at a multiplicity of infection (m.o.i.) of 25. In other parallel plates of cells, 24 h after plating, cells were pretreated 30 minutes prior to any additional manipulation with either vehicle (VEH, DMSO) or a JNK½ inhibitory peptide (JNK-IP, 10 μM).

[4] = cited from earlier work
[5] = tested on: LNCaP cells; assay: MTT cell growth assay in LNCaP cells; type: cell-based, human; settings: caspase inhibitor 50 μM, radiation 4 Gy, 96 h
Description: LNCaP cells were cultured as described above. […] Caspase inhibitors were re-supplemented every 24 hours. After 96 hours of culture, cell viability numbers were determined MTT assays using a plate reader.

[6] = tested on: LNCaP cells; assay: Cell survival (colony formation) assay in LNCaP cells; type: cell-based, human; settings: AG1478 1 μM removed 96 h after hCG 2 mU/ml and 4 Gy; 28 days
Description: (§4) LNCaP cells were cultured as described above.
Apoptosis Assay. LNCaP cells were cultured as described above.
as §4

[7] = tested on: PARP1; assay: PARP1 ADP-ribosylation status (immunoblot) in LNCaP cells; type: cell-based, human; settings: AG1478 5 minutes after or 30 minutes before radiation; hCG 2 mU/ml, 4 Gy
Description: as §3, §4, §4

CNC(=O)[C@H](Cc1c[nH]c2ccccc12)NC(=O)[C@@H](CC(=O)NO)CC(C)C [GM6001]
effect on hCG-induced ERK½ activation [1]: abolisged ERBB1 Y1173 phosphorylation and ERK½ activation
effect on hCG-induced ERBB1 Y1173 phosphorylation [2]: abolisged ERBB1 Y1173 phosphorylation

pertussis toxin
effect on hCG-induced ERK½ activation [1]: suppressed hCG-induced activation of ERK½
effect on hCG-induced ERBB1 Y1173 phosphorylation [2]: blocked

CC[C@H](C)C(=O)O[C@H]1C[C@@H](C)C=C2C=C[C@H](C)[C@H](CC[C@@H]3C[C@@H](O)CC(=O)O3)[C@H]21 [lovastatin]
enhancement of the lethality of hCG ([3]; lovastatin 0.1-0.6 μM 30 min before hCG 1 or 2 mU/ml, 96 h): enhanced the lethality of hCG to an extent greater than was observed using a PI3K inhibitor
concentrations achievable in human plasma [4]: 100 to 600 nM
JNK½ activation, combined exposure ([1]; lovastatin 0.6 μM with hCG 2 mU/ml, within 48 hours): promoted JNK½ activation
hCG induced ERK½ and AKT activation ([1]; lovastatin 0.6 μM, hCG 2 mU/ml, within 48 hours): suppressed hCG induced ERK½ and AKT activation
basal AKT activity ([1]; lovastatin 0.6 μM, within 48 hours): suppressed basal AKT activity; also recorded: reduced AKT activity

CC(C)=CCC/C(C)=C/CC/C(C)=C/CC/C(C)=C/COP(=O)(O)OP(=O)(O)O [GGPP, geranylgeranyl pyrophosphate]
effect on the lethal interaction between hCG and lovastatin ([3]; FPP 1 μM or GGPP 1 μM, lovastatin 0.6 μM, hCG 2 mU/ml, 96 h): abolished the lethal interaction between hCG and lovastatin

Cl.O=c1cc(N2CCOCC2)oc2c(-c3ccccc3)cccc12 [LY294002, 2-(4-Morpholinyl)-8-phenyl-4H-1-benzopyran-4-one hydrochloride]
effect of inhibitor on cell viability / hCG lethality ([3]; 96 h): enhanced hCG lethality in LNCaP cells in a greater than additive fashion

CN(C)CC(=O)Nc1ccc2[nH]c(=O)c3ccccc3c2c1 [PJ-34]
effect of PARP inhibition on potentiation of hCG lethality by radiation ([3]; PJ-34 5 μM, hCG 2 mU/ml, 4 Gy, 96 h): abolished the potentiation of hCG lethality by radiation

zVAD
effect of caspase inhibitor on lethality of lovastatin and hCG combination ([3]; LEHD 50 μM or zVAD 50 μM, lovastatin 0.6 μM, hCG 2 mU/ml, 96 h): reduced the lethality of the lovastatin and hCG combination
effect of caspase inhibitor on cell death by hCG and radiation ([3]; caspase inhibitor 50 μM, hCG 2 mU/ml, 4 Gy, 96 h): modestly blunted
protection from toxicity of ionizing radiation in MTT assays [5]: partially protected cells from the toxicity of ionizing radiation

COC(=O)[C@H](CC(C)C)NC(=O)c1ccc(NC[C@@H](N)CS)cc1-c1ccccc1 [GGTI-286]
cell killing with hCG when used in place of lovastatin ([3]; GGTI-286 10 μM with hCG): Identical data LNCaP cell killing data for hCG and lovastatin exposure were obtained

COc1cc2ncnc(Nc3cccc(Cl)c3)c2cc1OC [AG1478]
effect of ERBB1 inhibition on cell killing by hCG and radiation (colony formation) [6]: prevented the greater than additive induction of cell killing caused by combined hCG and radiation exposure
effect of inhibitor on cell viability / hCG lethality ([3]; 96 h): did not significantly alter cell viability following hCG exposure
effect on hCG-induced ERK½ activation [1]: blocked hCG-induced ERK½ activation
effect on PARP activation by combined hCG and radiation [7]: abolished the profound activation of PARP caused by combined hCG and radiation treatment
effect on hCG-induced ERBB1 Y1173 phosphorylation [2]: blocked

O=C(NOCC1CC1)c1ccc(F)c(F)c1Nc1ccc(I)cc1Cl [PD184352]
effect on hCG-induced ERBB1 Y1173 phosphorylation [2]: abolished
effect on radiation-induced ERBB1 Y1173 phosphorylation ([2]; PD184352 1 μM, 4 Gy, 30 min after irradiation): did not alter radiation-induced ERBB1 Y1173 phosphorylation
